Data on five compounds can be found in patent publication US4343949A, “Novel 2-substituted-3,4-epoxycyclopentan-1-ones, 2-substituted-3,4-epoxycyclopentan-1-ols, and various 2-substituted-cyclopentenones” (American Cyanamid Company, priority 1979, dated 1982).

Experiment [1] relates to ulcerogenic properties of indomethacin. The experiment can be described thus: protection against the ulcerogenic properties of indomethacin (stomach ulcer score). The note with it: indomethacin 20 mg./kg. s.c., 2.5 or lower = active. Type of experiment: in vivo, Rats. On the procedure:
The compounds of this invention provide protection against the ulcerogenic properties of indomethacin. This assay was carried out in the following manner.
Rats were starved for 48 hours (water was given ad libitum). Indomethacin (20 mg./kg. of body weight) was administered by the subutaneous route and one-half the dose of the test compound was administered by gavage at the same time. After three hours, the second half of the test compound was administered also by Gavage. Five hours after the administration of indomethacin the animals were decapitated and the stomachs removed. The stomachs were washed with distilled water, blotted on gauze, cut along the larger curvature, and the contents rinsed with distilled water. The stomachs were spread out, pinned on a cork and visualized under magnifying glass for ulcers. The criteria for scoring of ulcers was as previously reported. [Abdel-Galil et al. Brit. J. Pharmac. Chemotherapy 33:1-14 (1968)]. […]
______________________________________
Petechial hemorrhage or pin point ulcer
Many ulcers, a few large
Many ulcers, mainly large
Control animals treated with indomethacin but not test compound consistently give scores of about 3.0-3.5. Control animals treated with neither indomethacin nor test compound give scores of about 0.5-0.8. Compounds producing a score of 2.5 or lower are considered to be active.

In experiment [2] the test system is bronchospasms elicited by histamine. Nature of the experiment: bronchodilator activity (Konzett assay) against histamine bronchospasm. Format: in vivo, guinea pigs. To be noted: Cavia porcellus; spasmogenic agent histamine; three logarithmic cumulative intravenous doses. On the procedure:
(§1) Bronchodilator activity was determined in guinea pigs against bronchospasms elicited by intravenous injections of 5-hydroxytryptamine, histamine or acetylcholine by the Konzett procedure. (See J. Lulling, P. Lievens, F. El Sayed and J. Prignot, Arzeimittel-Porschung, 18 995 (1968).]
(§2) In the Table which follows bronchodilator activity for representative compounds of this invention against one or more of the three spasmogenic agents is expressed as an ED50 determined from the results obtained with three logarithemic cumulative intravenous doses.

Experiment [3] has as its system bronchospasms elicited by 5-hydroxytryptamine. The experiment can be described thus: bronchodilator activity (Konzett assay) against 5-hydroxytryptamine bronchospasm. Format: in vivo, guinea pigs. The note with it: Cavia porcellus; spasmogenic agent 5-hydroxytryptamine; three logarithmic cumulative intravenous doses. On the procedure: as §1, §2
For experiment [4], the system named is bronchospasms elicited by acetylcholine. The experiment can be described thus: bronchodilator activity (Konzett assay) against acetylcholine bronchospasm. Type of experiment: in vivo, guinea pigs. The note with it: Cavia porcellus; spasmogenic agent acetylcholine (head prints choline); three logarithmic cumulative intravenous doses. On the procedure: as §1, §2

Setting [5] is: total oral dose 25 mg./kg. of body weight, control score 3.2.

`CCCCCC(O)/C=C/C1CCC(=O)C1CCCCSCC(=O)O` (stereo not drawn) [9-oxo-3-thia-15-epi-hydroxy-13-trans-prostenoic acid]: the “Score, Treated (stomach ulcer score)” value in experiment [1] (setting [5]) was found to be 2.3.
Take `CCCCCC(O)/C=C/C1CCC(=O)C1CCCCSCC(=O)O` (stereo not drawn) [9-oxo-3-thia-15-hydroxy-13-trans-prostenoic acid]: the “Score, Treated (stomach ulcer score)” value in experiment [1] (setting [5]) came to 1.8.
In the case of `CCCCCC(O)/C=C/C1CCC(=O)C1(C)CCCCCCC(=O)O` (stereo not drawn) [9-oxo-8β-methyl-15-hydroxy-13-trans-prostenoic acid], the “Score, Treated (stomach ulcer score)” value in experiment [1] (total oral dose 12.5 mg./kg. of body weight, control score 3.0) is on record as 2.0.
`CCCCCC(O)/C=C/C1CCC(=O)C1CCCCCC(CC)C(=O)O` (stereo not drawn) [9-oxo-15-hydroxy-2-ethyl-13-trans-prostenoic acid]: the ED50 (commonly the midpoint of the dose-response relation) in experiment [2] turned out to be 0.145 µg/kg; in experiment [3], 0.329 µg/kg; in experiment [4], 0.533 µg/kg.
On to `CCCCCC(O)/C=C\C1CCC(=O)C1CCCCCCC(=O)O` (stereo not drawn) [9-oxo-15-hydroxy-13-cis-prostenoic acid], for which the ED50 in experiment [3] was found to be 0.106 µg/kg; in experiment [4], 0.32 µg/kg.
